Test [1] has as its target T1, 5-hydroxytryptamine receptor 2B (Homo sapiens, UniProt P41595). The format is functional, cell-based.
The target in test [2] is Gamma-aminobutyric acid receptor subunit alpha-1 (Rattus norvegicus, UniProt P62813). The format is functional.
Test [3] addresses T2, Adenosine receptor A3 (Homo sapiens, UniProt P0DMS8).
T2 sequence (P0DMS8 whole entry): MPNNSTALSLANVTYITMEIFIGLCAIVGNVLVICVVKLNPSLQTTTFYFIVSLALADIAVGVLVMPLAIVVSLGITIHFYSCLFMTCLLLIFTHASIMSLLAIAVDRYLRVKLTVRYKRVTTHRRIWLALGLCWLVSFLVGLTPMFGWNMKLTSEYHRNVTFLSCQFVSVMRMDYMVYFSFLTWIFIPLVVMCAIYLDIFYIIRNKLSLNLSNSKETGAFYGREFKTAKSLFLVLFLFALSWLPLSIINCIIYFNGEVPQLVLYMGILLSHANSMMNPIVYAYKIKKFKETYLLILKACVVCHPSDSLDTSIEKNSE

In test [4] the target is Vasopressin V1a receptor (Homo sapiens, UniProt P37288).
Vasopressin V1a receptor, sequence (P37288 whole entry): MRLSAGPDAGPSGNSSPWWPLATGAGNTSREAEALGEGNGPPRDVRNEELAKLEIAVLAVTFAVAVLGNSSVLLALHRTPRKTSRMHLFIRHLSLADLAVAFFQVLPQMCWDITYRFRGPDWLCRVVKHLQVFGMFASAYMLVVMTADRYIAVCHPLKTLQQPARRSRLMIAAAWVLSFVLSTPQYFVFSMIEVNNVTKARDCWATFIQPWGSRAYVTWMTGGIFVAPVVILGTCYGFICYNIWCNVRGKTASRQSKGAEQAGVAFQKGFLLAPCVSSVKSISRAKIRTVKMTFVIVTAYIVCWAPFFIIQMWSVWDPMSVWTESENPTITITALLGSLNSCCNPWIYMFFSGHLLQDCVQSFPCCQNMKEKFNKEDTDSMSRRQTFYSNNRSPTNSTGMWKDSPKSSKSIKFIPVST
In test [5] the target is T3, Muscarinic acetylcholine receptor M2 (Homo sapiens, UniProt P08172).
T3 sequence (P08172 whole entry): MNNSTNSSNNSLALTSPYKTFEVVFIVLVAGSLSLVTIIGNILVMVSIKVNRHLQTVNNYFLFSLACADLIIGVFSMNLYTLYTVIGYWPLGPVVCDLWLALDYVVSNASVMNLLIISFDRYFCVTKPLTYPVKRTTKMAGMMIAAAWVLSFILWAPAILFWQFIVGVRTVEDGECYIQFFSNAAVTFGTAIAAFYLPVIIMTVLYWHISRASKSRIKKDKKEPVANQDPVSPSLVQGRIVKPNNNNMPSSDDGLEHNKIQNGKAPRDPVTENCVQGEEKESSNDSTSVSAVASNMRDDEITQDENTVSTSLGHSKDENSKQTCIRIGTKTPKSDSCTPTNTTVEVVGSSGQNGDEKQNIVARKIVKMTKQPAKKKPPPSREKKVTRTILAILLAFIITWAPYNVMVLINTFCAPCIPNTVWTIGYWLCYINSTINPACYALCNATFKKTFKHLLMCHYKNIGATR
The format is functional, cell-based.

Test [6] concerns the target Adenosine receptor A2a (Homo sapiens, UniProt P29274).
Test [7] has as its target Mu-type opioid receptor (Homo sapiens, UniProt P35372).
Test [8] has as its target T4, Equilibrative nucleoside transporter 1 (Homo sapiens, UniProt Q99808).
T4 sequence (Q99808 whole entry): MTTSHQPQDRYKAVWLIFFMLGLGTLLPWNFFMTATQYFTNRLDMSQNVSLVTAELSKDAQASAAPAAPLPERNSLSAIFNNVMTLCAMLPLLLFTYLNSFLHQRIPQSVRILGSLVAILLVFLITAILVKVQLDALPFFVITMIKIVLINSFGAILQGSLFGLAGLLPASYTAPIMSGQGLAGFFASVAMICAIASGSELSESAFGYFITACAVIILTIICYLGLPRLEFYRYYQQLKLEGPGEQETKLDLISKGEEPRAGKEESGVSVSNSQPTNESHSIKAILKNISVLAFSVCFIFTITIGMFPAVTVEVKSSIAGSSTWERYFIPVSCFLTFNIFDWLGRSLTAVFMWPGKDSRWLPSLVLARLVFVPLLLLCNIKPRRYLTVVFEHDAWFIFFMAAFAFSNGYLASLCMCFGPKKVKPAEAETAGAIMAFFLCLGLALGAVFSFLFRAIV

Test [9] has as its target Glutamate receptor ionotropic, NMDA 1 (Rattus norvegicus, UniProt P35439).
Test [10] addresses T1, 5-hydroxytryptamine receptor 2B. Type of test: functional, cell-based. This is another data set of the same source.
In test [11] the target is 3',5'-cyclic-AMP phosphodiesterase 4D (Homo sapiens, UniProt Q08499). Type of test: functional.
3',5'-cyclic-AMP phosphodiesterase 4D, sequence (Q08499 whole entry): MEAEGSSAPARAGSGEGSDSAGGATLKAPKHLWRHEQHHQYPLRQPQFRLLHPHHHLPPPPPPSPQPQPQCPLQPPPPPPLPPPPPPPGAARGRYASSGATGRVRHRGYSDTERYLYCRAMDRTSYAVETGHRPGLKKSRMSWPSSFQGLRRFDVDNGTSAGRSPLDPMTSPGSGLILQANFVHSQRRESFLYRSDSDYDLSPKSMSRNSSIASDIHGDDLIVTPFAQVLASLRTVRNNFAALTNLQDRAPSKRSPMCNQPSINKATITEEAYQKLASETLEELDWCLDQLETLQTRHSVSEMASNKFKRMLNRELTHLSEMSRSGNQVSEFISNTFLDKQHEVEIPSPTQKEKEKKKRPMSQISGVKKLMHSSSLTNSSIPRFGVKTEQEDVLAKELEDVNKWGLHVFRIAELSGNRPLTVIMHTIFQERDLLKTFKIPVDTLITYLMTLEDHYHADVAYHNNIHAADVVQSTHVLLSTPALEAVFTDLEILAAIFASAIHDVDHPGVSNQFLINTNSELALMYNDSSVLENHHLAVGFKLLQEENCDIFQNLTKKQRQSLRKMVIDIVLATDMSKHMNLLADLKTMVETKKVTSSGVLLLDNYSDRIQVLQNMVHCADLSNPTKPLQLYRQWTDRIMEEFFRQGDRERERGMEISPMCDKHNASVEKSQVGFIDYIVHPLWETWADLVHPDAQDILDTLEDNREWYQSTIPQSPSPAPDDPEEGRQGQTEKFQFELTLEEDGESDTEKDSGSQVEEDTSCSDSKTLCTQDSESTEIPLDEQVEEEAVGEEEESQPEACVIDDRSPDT
Test [12] deals with T5, Progesterone receptor (Homo sapiens, UniProt P06401).
T5 sequence (P06401 whole entry): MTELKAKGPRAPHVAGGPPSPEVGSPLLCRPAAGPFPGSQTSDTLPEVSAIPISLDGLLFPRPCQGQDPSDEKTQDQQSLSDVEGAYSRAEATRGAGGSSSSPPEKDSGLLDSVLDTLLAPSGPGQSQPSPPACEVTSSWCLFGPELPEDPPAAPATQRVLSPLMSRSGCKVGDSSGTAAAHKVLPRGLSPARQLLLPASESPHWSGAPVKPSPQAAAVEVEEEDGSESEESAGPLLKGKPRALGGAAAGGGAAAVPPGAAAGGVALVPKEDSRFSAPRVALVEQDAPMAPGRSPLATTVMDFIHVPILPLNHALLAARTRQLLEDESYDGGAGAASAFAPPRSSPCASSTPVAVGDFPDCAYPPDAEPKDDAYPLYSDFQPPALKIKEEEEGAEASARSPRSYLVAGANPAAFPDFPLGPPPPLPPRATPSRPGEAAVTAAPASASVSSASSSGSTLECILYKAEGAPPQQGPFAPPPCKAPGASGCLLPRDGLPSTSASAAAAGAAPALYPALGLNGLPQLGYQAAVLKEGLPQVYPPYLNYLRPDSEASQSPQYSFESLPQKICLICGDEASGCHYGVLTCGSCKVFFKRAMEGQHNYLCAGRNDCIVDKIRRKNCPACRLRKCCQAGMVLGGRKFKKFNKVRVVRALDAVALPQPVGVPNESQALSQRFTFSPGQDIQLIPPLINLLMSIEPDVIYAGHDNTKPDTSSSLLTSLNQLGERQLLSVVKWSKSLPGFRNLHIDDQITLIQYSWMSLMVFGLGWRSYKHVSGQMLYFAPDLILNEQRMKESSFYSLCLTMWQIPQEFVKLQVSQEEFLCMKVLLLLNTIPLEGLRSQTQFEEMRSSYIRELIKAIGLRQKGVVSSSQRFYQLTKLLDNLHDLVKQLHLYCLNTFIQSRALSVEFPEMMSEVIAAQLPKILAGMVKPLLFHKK
Type of test: functional.

Where only a bound is given, the exact number is not on record here.

Data on twelve compounds can be found in ChEMBL document CHEMBL5291721, “A preclinical secondary pharmacology resource illuminates target-adverse drug reaction associations of marketed drugs” (Nat Commun, 2023).
Note: assay procedure not described here.

Gamma-aminobutyric acid receptor subunit alpha-1, sequence (P62813 whole entry): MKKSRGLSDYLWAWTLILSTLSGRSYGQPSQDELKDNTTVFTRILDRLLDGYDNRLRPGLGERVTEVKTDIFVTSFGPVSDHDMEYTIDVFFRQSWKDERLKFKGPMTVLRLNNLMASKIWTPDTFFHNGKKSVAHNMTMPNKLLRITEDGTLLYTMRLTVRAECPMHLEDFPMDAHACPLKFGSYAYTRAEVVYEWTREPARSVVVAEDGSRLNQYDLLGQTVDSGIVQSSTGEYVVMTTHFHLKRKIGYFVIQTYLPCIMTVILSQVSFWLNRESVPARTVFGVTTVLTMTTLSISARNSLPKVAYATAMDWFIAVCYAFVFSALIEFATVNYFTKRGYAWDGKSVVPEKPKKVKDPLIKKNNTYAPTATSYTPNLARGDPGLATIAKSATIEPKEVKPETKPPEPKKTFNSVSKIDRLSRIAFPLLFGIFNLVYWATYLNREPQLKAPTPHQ
Adenosine receptor A2a, sequence (P29274 whole entry): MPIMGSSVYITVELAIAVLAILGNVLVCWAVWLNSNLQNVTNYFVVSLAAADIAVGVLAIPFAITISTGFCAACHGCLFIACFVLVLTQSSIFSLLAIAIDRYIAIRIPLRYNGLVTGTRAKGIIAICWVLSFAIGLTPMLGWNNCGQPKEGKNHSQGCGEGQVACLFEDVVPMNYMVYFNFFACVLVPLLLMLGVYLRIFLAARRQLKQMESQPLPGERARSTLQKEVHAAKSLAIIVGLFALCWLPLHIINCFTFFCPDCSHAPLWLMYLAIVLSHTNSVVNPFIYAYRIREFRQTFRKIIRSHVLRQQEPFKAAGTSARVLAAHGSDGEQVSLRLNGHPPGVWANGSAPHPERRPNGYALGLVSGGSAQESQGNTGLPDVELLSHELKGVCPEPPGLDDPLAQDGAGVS
Mu-type opioid receptor, sequence (P35372 whole entry): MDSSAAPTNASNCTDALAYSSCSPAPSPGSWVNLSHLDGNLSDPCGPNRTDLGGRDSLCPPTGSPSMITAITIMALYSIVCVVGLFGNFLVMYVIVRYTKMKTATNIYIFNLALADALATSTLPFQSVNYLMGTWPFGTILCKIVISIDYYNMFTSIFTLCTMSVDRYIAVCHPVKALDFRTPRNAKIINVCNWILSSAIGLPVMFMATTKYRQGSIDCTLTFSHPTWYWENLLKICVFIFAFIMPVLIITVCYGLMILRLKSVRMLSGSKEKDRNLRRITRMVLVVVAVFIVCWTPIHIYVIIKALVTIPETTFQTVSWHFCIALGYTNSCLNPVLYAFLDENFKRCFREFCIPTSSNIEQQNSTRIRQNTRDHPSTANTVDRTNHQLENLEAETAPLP
T1 sequence (P41595 whole entry): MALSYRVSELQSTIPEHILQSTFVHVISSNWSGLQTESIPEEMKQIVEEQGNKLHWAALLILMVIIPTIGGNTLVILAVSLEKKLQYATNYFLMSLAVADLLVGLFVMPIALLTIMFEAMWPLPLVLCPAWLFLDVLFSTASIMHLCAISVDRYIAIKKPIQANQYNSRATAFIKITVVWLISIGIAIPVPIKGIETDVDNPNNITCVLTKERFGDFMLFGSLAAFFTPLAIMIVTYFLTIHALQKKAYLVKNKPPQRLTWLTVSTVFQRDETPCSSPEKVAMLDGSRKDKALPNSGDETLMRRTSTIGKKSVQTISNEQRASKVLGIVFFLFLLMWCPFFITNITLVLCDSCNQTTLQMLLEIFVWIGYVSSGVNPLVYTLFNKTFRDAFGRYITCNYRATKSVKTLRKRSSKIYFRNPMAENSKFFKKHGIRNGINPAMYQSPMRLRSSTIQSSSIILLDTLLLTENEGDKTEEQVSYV

The term AC50 denotes the concentration giving half of the maximal activity seen. Lower therefore signals greater potency. Consider `Cc1ccc(C)c(OCCCC(C)(C)C(=O)O)c1` [GEMFIBROZIL], for which the AC50 in test [1] is > 10 µM; in test [2], > 10 µM; in test [3] it was > 30 µM; in [4], > 10 µM; in [5], > 10 µM; in test [6], > 30 µM. Also, the AC50 in test [7] was > 30 µM; in test [8], > 30 µM; in test [9], > 10 µM; in test [10], 4.4 µM; in test [11], > 30 µM.
For the compound `O=C(O)Cc1ccccc1Nc1c(Cl)cccc1Cl` [DICLOFENAC], the AC50 is > 10 µM in test [1]; > 10 µM in [2]; > 30 µM in test [3]; > 30 µM in test [4]; > 10 µM in [5]; > 30 µM in [6]. The AC50 is > 30 µM in [7]; > 30 µM in [8]; > 10 µM in test [9]; > 10 µM in test [10]; > 30 µM in [11].
With `CC[C@H](C)C(=O)O[C@H]1C[C@@H](C)C=C2C=C[C@H](C)[C@H](CC[C@@H]3C[C@@H](O)CC(=O)O3)[C@H]21` [LOVASTATIN], the half-maximal activity concentration (AC50) is > 10 µM in [1]; > 10 µM in test [2]; 28.5 µM in [3]; > 10 µM in [4]; > 10 µM in test [5]; > 30 µM in [6]. Also, the AC50 is > 30 µM in test [7]; > 30 µM in test [8]; > 10 µM in test [9]; 23 µM in test [10]; > 30 µM in test [11].
With `CC(C)[C@H](N)C(=O)OCCOCn1cnc2c(=O)[nH]c(N)nc21` [VALACYCLOVIR], the AC50 in [1] is > 10 µM; in [2], > 10 µM; in [3] it was > 30 µM; in [4], > 10 µM; in [5] it was > 10 µM; in test [6] it was > 30 µM. Further, the AC50 was > 30 µM in test [7]; > 30 µM in [8]; > 10 µM in test [9]; > 10 µM in [10]; > 30 µM in test [11].
Regarding `O=C1Cc2cc(CCN3CCN(c4nsc5ccccc45)CC3)c(Cl)cc2N1` [ZIPRASIDONE], the AC50 is > 30 µM in test [1]; > 10 µM in [2]; > 30 µM in test [3]; > 10 µM in test [4]; > 10 µM in test [5]; > 30 µM in test [6]. Moreover, the AC50 is > 30 µM in [7]; > 30 µM in [8]; > 10 µM in [9]; 0.229 µM in [10]; > 30 µM in test [11].
As to `Clc1ccc(Cn2c(CN3CCCC3)nc3ccccc32)cc1` [CLEMIZOLE], the AC50 in [1] is 0.67 µM; in [2] it was > 30 µM; in test [3] it was > 30 µM; in [4], > 30 µM; in test [5], > 10 µM; in [6], > 30 µM. Further, the concentration at half-maximal activity (AC50) in test [7] is > 30 µM; in [8], > 30 µM; in test [11], 28 µM.
In the case of `CCCNC(=O)NS(=O)(=O)c1ccc(Cl)cc1` [CHLORPROPAMIDE], the AC50 in test [1] is > 10 µM; in [2], > 10 µM; in test [3] it was > 30 µM; in test [4] it was > 30 µM; in test [5], > 10 µM; in test [6], > 30 µM. Also, the AC50 was > 30 µM in [7]; > 30 µM in test [8]; > 10 µM in [9]; > 10 µM in test [10]; > 30 µM in test [11].
Take `O=C(O)Cc1ccccc1Oc1ccc(Cl)cc1Cl` [FENCLOFENAC]: the AC50 in test [1] is > 10 µM; in test [2], > 10 µM; in test [3] it was > 30 µM; in [4], > 10 µM; in test [5], > 10 µM; in test [6], > 30 µM. The AC50 in [7] is > 30 µM; in test [8], > 30 µM; in test [9] it was > 10 µM; in test [10], > 10 µM; in test [11], > 10 µM.
As to `CNC(=C[N+](=O)[O-])NCCSCc1csc(CN(C)C)n1` [NIZATIDINE], the AC50 in [1], in [2], in test [3], in test [12], in test [5] and in test [6] was > 10 µM in each case. The AC50 was > 30 µM in test [7]; > 10 µM in test [8]; > 10 µM in [9]; > 10 µM in test [10]; > 30 µM in [11].
For the compound `CC[C@@H](CO)NC(=O)[C@@H]1C=C2c3cccc4c3c(cn4C)C[C@H]2N(C)C1` [METHYSERGIDE], the AC50 in test [2] is > 10 µM; in test [3] it was > 30 µM; in test [4], > 30 µM; in [5], > 30 µM; in test [6] it was > 30 µM; in test [7], > 30 µM. For the same compound, the AC50 in test [8] was > 30 µM; in [9] it was > 10 µM; in test [11], > 30 µM.
For the compound `COc1cc(C(=O)NS(=O)(=O)c2ccccc2C)ccc1Cc1cn(C)c2ccc(NC(=O)OC3CCCC3)cc12` [ZAFIRLUKAST], the AC50 is > 10 µM in [2]; 11.4 µM in [3]; > 10 µM in [4]; > 30 µM in test [12]; > 30 µM in [6]; > 30 µM in [7]. The AC50 was > 10 µM in test [8], > 10 µM in test [9] and 5.4 µM in test [11].
In the case of `CN1Cc2c(N)cccc2C(c2ccccc2)C1` (stereo unspecified) [NOMIFENSINE], the AC50 in test [1], in [2], in test [3], in [4], in test [12] and in [5] was > 30 µM throughout. The AC50 in [6] was > 30 µM; in test [7], 4.4 µM; in test [8] it was > 30 µM; in [9], > 30 µM; in test [11], > 30 µM.
